The record followed here is patent publication US12213482B2, “Fungicide enhancers effective for treating plants infected with fungal pathogens” (Board of Regents, The University of Texas System, priority 2015, dated 2025).

What all share (type): cell-based
Experiment [1] concerns Colletotrichum graminicola. As to the kind of experiment: Antifungal susceptibility disk test, fungicide disk plus apyrase inhibitor in plate. Particulars: inhibitor 65 μM, 30° C., 7 days; for inhibitory effect on the growth of C. graminicola compared to copper octanoate alone: combined with copper octanoate (285 mM) disk, FIG. 3A; for inhibitory effect on the growth of C. graminicola compared to myclobutanil alone: combined with myclobutanil (53.6 mM) disk, FIG. 3B. As for the experimental part: Copper Octanoate, 3B. Propiconazole, and 3C. Myclobutanil against the pathogenic fungi Colletotrichum graminicola. […] The equivalent volume of dimethylsulphoxide (DMSO) was added as a control. The studies were repeated two times with similar results. Error bars indicate standard deviations (n=5). The significances of the potency of fungicides are indicated: *** (Student's t-test, P<0.001; **(Student's t-test, P<0.01) or *(Student's t-test, P<0.05). The plant pathogenic fungal strains Botrytis cinerea, Colletotrichum graminicola, Fusarium oxysporum, Sclerotiana sclerotiorum and Verticillium dahliae were obtained from the Institute for Plant Genomics & Biotechnology, Texas A & M University, USA Potato dextrose agar (PDA, Sigma-Aldrich) was routinely used for the growth of different pathogenic fungal strain. Ectophosphatase inhibitors NGXT191 (AI.1), AI.10, NGXT1913 (AI.13), and AI. 15 were used dal this study. The fungicides copper octanoate (C16H30CuO4), myclobutanil (C15H17ClN4) and propiconazole (C15H17Cl2N3O2) were used. The concentrations of these compounds used were copper octanoate (285 mM), myclobutanil (53.6 mM) and propiconazole (418 mM). Standard antifungal susceptibility disk tests were performed to determine any potentiating effect of ectophosphatase inhibitors on the growth of pathogenic fungus. The pathogenic fungus wild-type strains were plated on PDA medium with paper-disks containing, fungicides at the center of the plate. […] Plates were incubated at 30° C. for 7-days (C. graminicola and S. sclerotiorum) or 12-days (B. cinerea, F. oxysporum and V. dahliae), depending on the growth rate of the fungi. Plates were photographed, and the zone of fungal growth inhibition was measured by using IMAGE J™ software (NIH, USA). All the tests were performed with 5 replicates. The studies were performed two times. Results were analyzed for significance using Student T-tests.

The subject of a further experiment is Sclerotiana sclerotiorum. The description is as above. Particulars: inhibitor 65 μM, 30° C., 7 days; for inhibitory effect on the growth of Sclerotiana sclerotiorum compared to copper octanoate alone: combined with copper octanoate (285 mM) disk, FIG. 5A; for inhibitory effect on growth of Sclerotiana sclerotiorum compared to myclobutanil alone: combined with myclobutanil (53.6 mM) disk, FIG. 5B; for inhibitory effect on the growth of Sclerotiana sclerotiorum compared to propiconazole alone: combined with propiconazole (418 mM) disk, FIG. 5C. On the procedure:
The equivalent volume of dimethylsulphoxide (DMSO) was added as a control. The studies were repeated two times with similar results. Error bars indicate standard deviations (n=5). The significances of the potency of fungicides are indicated: *** (Student's t-test, P<0.001); **(Student's t-test, P<0.01) or *(Student's t-test, P<0.05). The plant pathogenic fungal strains Botrytis cinerea, Colletotrichum graminicola, Fusarium oxysporum, Sclerotiana sclerotiorum and Verticillium dahliae were obtained from the Institute for Plant Genomics & Biotechnology, Texas A & M University, USA Potato dextrose agar (PDA, Sigma-Aldrich) was routinely used for the growth of different pathogenic fungal strain. Ectophosphatase inhibitors NGXT191 (AI.1), AI.10, NGXT1913 (AI.13), and AI. 15 were used dal this study. The fungicides copper octanoate (C16H30CuO4), myclobutanil (C15H17ClN4) and propiconazole (C15H17Cl2N3O2) were used. The concentrations of these compounds used were copper octanoate (285 mM), myclobutanil (53.6 mM) and propiconazole (418 mM). Standard antifungal susceptibility disk tests were performed to determine any potentiating effect of ectophosphatase inhibitors on the growth of pathogenic fungus. The pathogenic fungus wild-type strains were plated on PDA medium with paper-disks containing, fungicides at the center of the plate. […] Plates were incubated at 30° C. for 7-days (C. graminicola and S. sclerotiorum) or 12-days (B. cinerea, F. oxysporum and V. dahliae), depending on the growth rate of the fungi. Plates were photographed, and the zone of fungal growth inhibition was measured by using IMAGE J™ software (NIH, USA). All the tests were performed with 5 replicates. The studies were performed two times. Results were analyzed for significance using Student T-tests.

A further experiment deals with Verticillium dahliae. Described as above. Particulars: inhibitor 65 μM, 30° C., 12 days; for inhibitory effect on the growth of V. dahliae compared to copper octanoate alone: combined with copper octanoate (285 mM) disk, FIG. 6A; for inhibitory effect on the growth of V. dahliae compared to propiconazole alone: combined with propiconazole (418 mM) disk, FIG. 6C. On the procedure: Copper Octanoate, 6B. Propiconazole, and 6C. Myclobutanil against the pathogenic fungi Verticillium dahliae. […] The equivalent volume of dimethylsulphoxide (DMSO) was added as a control. The studies were repeated two times with similar results. Error bars indicate standard deviations (n=5). The significances of the potency of fungicides are indicated: *** […]); **(Student's t-test, P<0.01) or *(Student's t test, P<0.05). The plant pathogenic fungal strains Botrytis cinerea, Colletotrichum graminicola, Fusarium oxysporum, Sclerotiana sclerotiorum and Verticillium dahliae were obtained from the Institute for Plant Genomics & Biotechnology, Texas A & M University, USA Potato dextrose agar (PDA, Sigma-Aldrich) was routinely used for the growth of different pathogenic fungal strain. Ectophosphatase inhibitors NGXT191 (AI.1), AI.10, NGXT1913 (AI.13), and AI. 15 were used dal this study. The fungicides copper octanoate (C16H30CuO4), myclobutanil (C15H17ClN4) and propiconazole (C15H17Cl2N3O2) were used. The concentrations of these compounds used were copper octanoate (285 mM), myclobutanil (53.6 mM) and propiconazole (418 mM). Standard antifungal susceptibility disk tests were performed to determine any potentiating effect of ectophosphatase inhibitors on the growth of pathogenic fungus. The pathogenic fungus wild-type strains were plated on PDA medium with paper-disks containing, fungicides at the center of the plate. […] Plates were incubated at 30° C. for 7-days (C. graminicola and S. sclerotiorum) or 12-days (B. cinerea, F. oxysporum and V. dahliae), depending on the growth rate of the fungi. Plates were photographed, and the zone of fungal growth inhibition was measured by using IMAGE J™ software (NIH, USA). All the tests were performed with 5 replicates. The studies were performed two times. Results were analyzed for significance using Student T-tests.

The test system of the next experiment is plant pathogenic fungi. Briefly: Fungal plate assays, apyrase inhibitors tested alone. Particulars: apyrase inhibitor alone, no fungicide. On the procedure: Standard antifungal susceptibility disk tests were performed to determine any potentiating effect of ectophosphatase inhibitors on the growth of pathogenic fungus. The pathogenic fungus wild-type strains were plated on PDA medium with paper-disks containing, fungicides at the center of the plate. […] Plates were incubated at 30° C. for 7-days (C. graminicola and S. sclerotiorum) or 12-days (B. cinerea, F. oxysporum and V. dahliae), depending on the growth rate of the fungi. Plates were photographed, and the zone of fungal growth inhibition was measured by using IMAGE J™ software (NIH, USA). All the tests were performed with 5 replicates. The studies were performed two times. Results were analyzed for significance using Student T-tests.

Turning to `Cc1cccc(NS(=O)(=O)c2ccc(-c3ccccc3)cc2)c1` [AI.1, N-(m-tolyl)-[1,1′-biphenyl]-4-sulfonamide], in experiment [1], the “inhibitory effect on the growth of C. graminicola compared to copper octanoate alone” value is “significantly greater inhibitory effect” and the “inhibitory effect on the growth of C. graminicola compared to myclobutanil alone” value was “significantly greater inhibitory effect”. In the experiment with Sclerotiana sclerotiorum, the “inhibitory effect on the growth of Sclerotiana sclerotiorum compared to copper octanoate alone” value was “significantly greater inhibitory effect”, the “inhibitory effect on growth of Sclerotiana sclerotiorum compared to myclobutanil alone” value was “significantly greater inhibitory effect” and the “inhibitory effect on the growth of Sclerotiana sclerotiorum compared to propiconazole alone” value is “significantly greater inhibitory effect”. In the experiment on Verticillium dahliae, the “inhibitory effect on the growth of V. dahliae compared to copper octanoate alone” value is on record as “significantly greater inhibitory effect”. Besides, the “fungicidal activity when tested alone” value in the experiment with plant pathogenic fungi is on record as “no fungicidal activity was detected”.

`CCCCCCCSC(=O)c1cc2ccccc2oc1=O` [AI.10, S-heptyl 2-oxo-2H-chromene-3-carbothioate]: the “inhibitory effect on the growth of C. graminicola compared to myclobutanil alone” value in experiment [1] is reported as “significantly greater inhibitory effect”. Also, in the experiment with Sclerotiana sclerotiorum, the “inhibitory effect on the growth of Sclerotiana sclerotiorum compared to copper octanoate alone” value was “significantly greater inhibitory effect”, the “inhibitory effect on growth of Sclerotiana sclerotiorum compared to myclobutanil alone” value is on record as “significantly greater inhibitory effect” and the “inhibitory effect on the growth of Sclerotiana sclerotiorum compared to propiconazole alone” value was “significantly greater inhibitory effect”. Besides, in the experiment with Verticillium dahliae, the “inhibitory effect on the growth of V. dahliae compared to copper octanoate alone” value is on record as “significantly greater inhibitory effect” and the “inhibitory effect on the growth of V. dahliae compared to propiconazole alone” value was “significantly greater inhibitory effect”. In addition, the “fungicidal activity when tested alone” value in the experiment with plant pathogenic fungi is “no fungicidal activity was detected”.

Take `O=C(Nc1cccc([N+](=O)[O-])c1)c1cccc(S(=O)(=O)Nc2ccc(Br)cc2)c1` [AI.13, 3-(N-(4-bromophenyl)sulfamoyl)-N-(3-nitrophenyl)benzamide]: in experiment [1], the “inhibitory effect on the growth of C. graminicola compared to copper octanoate alone” value is recorded as “significantly greater inhibitory effect” and the “inhibitory effect on the growth of C. graminicola compared to myclobutanil alone” value is recorded as “significantly greater inhibitory effect”. Further, in the experiment on Sclerotiana sclerotiorum, the “inhibitory effect on the growth of Sclerotiana sclerotiorum compared to copper octanoate alone” value is “significantly greater inhibitory effect”, the “inhibitory effect on growth of Sclerotiana sclerotiorum compared to myclobutanil alone” value is recorded as “significantly greater inhibitory effect” and the “inhibitory effect on the growth of Sclerotiana sclerotiorum compared to propiconazole alone” value is on record as “significantly greater inhibitory effect”. Besides, in the experiment on Verticillium dahliae, the “inhibitory effect on the growth of V. dahliae compared to copper octanoate alone” value is given as “significantly greater inhibitory effect”. For the same compound, the “fungicidal activity when tested alone” value in the experiment on plant pathogenic fungi is recorded as “no fungicidal activity was detected”.

On to `C/C(=N\NC(=O)c1cccc(C)c1)c1ccc2ccccc2c1` [AI.15, (E)-3-methyl-N′-(1-(naphthalen-2-yl)ethylidene)benzohydrazide], for which the “inhibitory effect on the growth of C. graminicola compared to myclobutanil alone” value in experiment [1] is reported as “significantly greater inhibitory effect”. In the experiment on Sclerotiana sclerotiorum, the “inhibitory effect on the growth of Sclerotiana sclerotiorum compared to copper octanoate alone” value is listed as “significantly greater inhibitory effect”, the “inhibitory effect on growth of Sclerotiana sclerotiorum compared to myclobutanil alone” value is recorded as “significantly greater inhibitory effect” and the “inhibitory effect on the growth of Sclerotiana sclerotiorum compared to propiconazole alone” value is recorded as “significantly greater inhibitory effect”. In the experiment with Verticillium dahliae, the “inhibitory effect on the growth of V. dahliae compared to copper octanoate alone” value is on record as “significantly greater inhibitory effect” and the “inhibitory effect on the growth of V. dahliae compared to propiconazole alone” value is given as “significantly greater inhibitory effect”. In the experiment with Verticillium dahliae (combined with myclobutanil (53.6 mM) disk, FIG. 6B), the “inhibitory effect on the growth of V. dahliae compared to myclobutanil alone” value is “significantly greater inhibitory effect”. For the same compound, the “fungicidal activity when tested alone” value in the experiment on plant pathogenic fungi is reported as “no fungicidal activity was detected”.
